Measurements reported in ChEMBL document CHEMBL2150862, “Cyclopropyl-spiro-piperidines Useful as Sodium Channel Blockers: Patent Highlight” (ACS Med Chem Lett, 2012).
pIC50: −log10 of the molar value.

The compounds below were run against Sodium channel protein type 9 subunit alpha (Homo sapiens, UniProt Q15858) (assay: Inhibition of Nav1.7 by cell-based FLIPR assay).
Sodium channel protein type 9 subunit alpha, sequence (Q15858 whole entry): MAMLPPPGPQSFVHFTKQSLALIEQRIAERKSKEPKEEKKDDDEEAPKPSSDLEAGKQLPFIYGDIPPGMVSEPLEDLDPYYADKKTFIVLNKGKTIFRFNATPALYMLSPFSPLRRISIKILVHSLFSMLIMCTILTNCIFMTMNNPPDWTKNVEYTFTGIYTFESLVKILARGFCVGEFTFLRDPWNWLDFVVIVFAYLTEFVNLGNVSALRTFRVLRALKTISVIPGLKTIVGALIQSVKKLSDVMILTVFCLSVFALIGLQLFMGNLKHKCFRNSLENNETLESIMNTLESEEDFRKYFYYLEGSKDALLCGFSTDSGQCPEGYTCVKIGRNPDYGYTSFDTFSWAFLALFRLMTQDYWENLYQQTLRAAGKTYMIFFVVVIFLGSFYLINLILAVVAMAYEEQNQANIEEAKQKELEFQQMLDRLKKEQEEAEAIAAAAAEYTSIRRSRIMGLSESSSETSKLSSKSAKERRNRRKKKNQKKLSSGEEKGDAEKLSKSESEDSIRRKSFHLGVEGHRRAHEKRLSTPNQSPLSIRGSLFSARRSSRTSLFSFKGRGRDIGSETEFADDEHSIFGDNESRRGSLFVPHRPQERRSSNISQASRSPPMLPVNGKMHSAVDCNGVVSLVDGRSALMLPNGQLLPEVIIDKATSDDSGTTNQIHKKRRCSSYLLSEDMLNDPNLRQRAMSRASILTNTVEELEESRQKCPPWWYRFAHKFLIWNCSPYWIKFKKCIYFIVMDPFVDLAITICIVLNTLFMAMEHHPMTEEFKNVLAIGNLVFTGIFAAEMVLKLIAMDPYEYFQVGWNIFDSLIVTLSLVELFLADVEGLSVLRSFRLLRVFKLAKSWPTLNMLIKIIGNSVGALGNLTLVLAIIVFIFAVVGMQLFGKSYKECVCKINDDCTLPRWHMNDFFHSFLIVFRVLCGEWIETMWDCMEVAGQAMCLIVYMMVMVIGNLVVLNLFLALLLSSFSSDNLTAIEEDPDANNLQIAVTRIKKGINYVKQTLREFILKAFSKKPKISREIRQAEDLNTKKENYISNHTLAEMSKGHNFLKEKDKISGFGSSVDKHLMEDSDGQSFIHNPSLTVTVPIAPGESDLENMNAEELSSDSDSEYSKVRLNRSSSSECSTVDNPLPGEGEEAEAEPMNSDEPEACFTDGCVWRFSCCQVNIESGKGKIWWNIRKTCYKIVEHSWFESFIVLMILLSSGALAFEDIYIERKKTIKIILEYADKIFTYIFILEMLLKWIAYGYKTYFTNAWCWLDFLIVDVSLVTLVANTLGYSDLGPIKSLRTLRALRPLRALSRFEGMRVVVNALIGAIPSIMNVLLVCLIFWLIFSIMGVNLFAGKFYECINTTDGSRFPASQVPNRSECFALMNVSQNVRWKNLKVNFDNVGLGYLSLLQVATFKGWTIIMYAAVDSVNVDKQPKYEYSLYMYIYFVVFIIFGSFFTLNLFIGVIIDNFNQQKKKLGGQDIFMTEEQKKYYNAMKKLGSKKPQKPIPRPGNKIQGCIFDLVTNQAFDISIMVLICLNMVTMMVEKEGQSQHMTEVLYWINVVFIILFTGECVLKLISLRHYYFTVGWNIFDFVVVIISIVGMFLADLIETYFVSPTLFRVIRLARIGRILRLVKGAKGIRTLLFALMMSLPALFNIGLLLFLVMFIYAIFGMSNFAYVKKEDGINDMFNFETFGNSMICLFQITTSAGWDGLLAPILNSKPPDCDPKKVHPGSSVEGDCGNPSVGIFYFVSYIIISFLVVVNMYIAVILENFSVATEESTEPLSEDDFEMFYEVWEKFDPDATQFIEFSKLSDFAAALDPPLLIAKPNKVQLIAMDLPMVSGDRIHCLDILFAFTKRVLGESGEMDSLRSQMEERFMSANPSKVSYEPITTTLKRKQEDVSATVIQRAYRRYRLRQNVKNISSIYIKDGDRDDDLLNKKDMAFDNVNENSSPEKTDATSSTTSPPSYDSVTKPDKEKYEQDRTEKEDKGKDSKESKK

Going from `c1ccc(CN2CCC3(CC2)CC3CNc2ccccc2N2CCCCC2)cc1` (stereo unspecified) to `c1ccc(CC(NCC2CC23CCN(c2ccccc2)CC3)c2ccccc2)cc1` (stereo unspecified), the pIC50 rises from 6.54 to 6.75 (0.21 log units). The second is the more potent here.

Going from `CN(C)c1ccc(C(=O)NC2CC23CCN(c2ccccc2)CC3)c2ccccc12` (stereo unspecified) to `CN(C)c1cccc2c(C(=O)NC3CC34CCN(c3ccccc3)CC4)cccc12` (stereo unspecified), the pIC50 falls from 7.01 to 6.63 (0.38 log units). The first is the more potent here.

`O=C(NC1CC12CCN(c1ccccc1)CC2)c1ccc(F)c2ccccc12` (stereo unspecified) and `CN(C)c1ccc(C(=O)NC2CC23CCN(c2cc(F)cc(F)c2)CC3)c2ccccc12` (stereo unspecified) are within 0.2 log units of each other in pIC50: 6.73 for the first, 6.82 for the second.
